Results reported in US20110236318A1, “ANIMAL MODEL OF AN EJACULATION-LIKE REFLEX” (ASTELLAS PHARMA INC., priority 2010, published 2011).

What was measured:
ejaculation-like reflex = assay: Ejaculation-like reflex induced by urethral occlusion by a bend at the penile base; assay type: in vivo, rat; conditions: anesthetized spinal cord-transected male SD rats; 1.0 mg/kg iv; occlusion 10 minutes after dosing; vs pre values; N=3
Text: Male SD rats of 300-450 g body weight (Charles River) were used under urethane anesthesia (1.2 g/kg, s.c., ACROS Organic). The skin and muscle on the back were incised to expose the 7th-9th thoracic vertebra. The vertebra on the back side was removed to expose the spinal cord, which was cut at the 8th-10th thoracic vertebra. Gelfoam (Pfizer) was imbedded in the cut site and the muscle and skin were sutured.
The neck skin and muscle were incised, and catheters (Intramedic polyethylene tube No. 50; Becton Dickinson) were inserted into the carotid and jugular vein for measuring the blood pressure and administering a drug, respectively. The other end of the carotid catheter was connected to a pressure transducer (CDXIII Transducer, Argon Medical Devices).
The lower abdominal region was subjected to median incision to expose the bladder. […] The pressure transducers connecting to the catheter inserted into the carotid […] and the catheter inserted into the proximal urethra were connected to a distortion pressure amplifier (Transbridge 4M, World Precision Instruments) installed in a polygraph system (RPS321RM, GRASS Technologies), and the blood pressure and urethral pressure were measured by a Power Labosystem (ML880 and LabChart version 6, AD Instruments) with a lapse of time. […]

ejaculatory latency = conditions: male rat copulatory behavior study, reported previously; cited from earlier work

**Q.** With CCCN(CCC)C1CCc2cccc(O)c2C1 (stereo not drawn) [8-OH-DPAT] as the molecule, how does the “latency from the start of occlusion until the first ejaculation-like reflex” value (ejaculation-like reflex) read?
**A.** shortened the latency of the first ejaculation-like reflex

**Q.** And the “threshold urethra pressure immediately before the first ejaculation-like reflex” value (ejaculation-like reflex)?
**A.** reduced the threshold urethra pressure

**Q.** What about the ejaculatory latency (ejaculatory latency) of the same molecule?
**A.** shorten the ejaculatory latency
